US20070087021A1, “METHOD OF PROTECTING AGAINST CHRONIC INFECTIONS” (priority 1997, published 2007)

Experiments:
coccidiosis [1] = test: Paired-barn comparison repeated: vaccine/monensin treatment vs monensin alone; type: in vivo, poultry; conditions: cockerels
Protocol: (§1) A gel form vaccine was prepared by first adding 200 ml of hot tap water to 5 gm of kappa carrageenan Bengel MB 910 in a container and mixing until the MB 910 had dissolved. To this solution was added 200 ml of a solution containing 500 oocysts per ml of a mixture of Eimeria acervulina, E. maxima and E. tenella and the combined solution was mixed. The solution was then poured into a plastic watering dish and allowed to cool and get at 4° C.
(§2) A paired-barn comparison was conducted between use of a anticoccidial ionophore and the method of the present invention for protecting poultry against coccidiosis. 51,000 birds were divided into two groups. One group was maintained on feed containing 60 mg per kilogram of feed of salinomycin sodium COXISTAC (Pfizer). The second group was administered the vaccine prepared in accordance with Example 1 on Day 1. These birds were maintained on feed with no medication for 10 days. Thereafter, 60 mg per kilogram of salinomycin sodium was utilized in the feed for a further 10 days after which the animals were maintained on non-medicated feed until shipping. A virginiamysin based growth promotant STAFAC (SmithKline Beecham) at a level of 11 mg per kilogram of feed was used as a growth promotant in both groups.
The above example was repeated comparing vaccine/monensin treatment with monensin alone and the results from this are shown in Table 2.

coccidiosis [2] = test: Paired-barn comparison of anticoccidial ionophore (salinomycin) vs vaccine plus salinomycin for protecting poultry against coccidiosis; type: in vivo
Protocol: as §1, §2

[3] = birds, market age 42 days / 52 days

Row | SMILES | EEF (European Efficiency Factor) (coccidiosis [1]) | Feed Conversion Ratio (coccidiosis [1]) | Avg. Weight (coccidiosis [1]; average at market (Monesin group: market age 47 days)) [kg] | Livability (%) (coccidiosis [1]; vaccine group: 2 weeks no medication, then 2 weeks monensin in feed) | Avg. Weight (coccidiosis [2]; [3]) [kg] | Feed Conversion Ratio (coccidiosis [2]; [3]) | Livability (%) (coccidiosis [2]; birds, market age 42 days / 52 days, salinomycin sodium 60 mg per kg feed (vaccine group: 10 days no medication, then 10 days salinomycin)) | EEF (European Efficiency Factor) (coccidiosis [2]; related to percent livability, average market weight, feed conversion rate and market age)
1 | CC[C@@]1([C@@H]2O[C@@H]([C@H]3O[C@@](O)(CO)[C@H](C)C[C@@H]3C)C[C@@H]2C)CC[C@H]([C@]2(C)CC[C@]3(C[C@H](O)[C@@H](C)[C@@H]([C@@H](C)[C@@H](OC)[C@H](C)C(=O)O)O3)O2)O1 [Monesin, monensin] | 2.23 | 2.19 | 2.44 | 94.1 | – | – | – | –
2 | CC[C@@H](C(=O)[C@@H](C)[C@@H](O)[C@H](C)[C@@H]1O[C@@H]([C@@H](CC)C(=O)O)CC[C@@H]1C)[C@H]1O[C@]2(C=C[C@@H](O)[C@]3(CC[C@@](C)([C@H]4CC[C@](O)(CC)[C@H](C)O4)O3)O2)[C@H](C)C[C@@H]1C [Salinomycin, salinomycin sodium] | – | – | – | – | 2.72 | 2.16 | 91.8 | 2.23
